From US20210161997A1, “TREATING DISEASES VIA TARGETED MODULATION OF GENE SIGNALING NETWORKS” (Camp4 Therapeutics Corporation, priority 2018, published 2021)

B1: BMP4: TGF-beta activator (protein, UniProt P12644 293-408, looked up)
Bone morphogenetic protein 4: SPKHHSQRARKKNKNCRRHSLYVDFSDVGWNDWIVAPPGYQAFYCHGDCPFPLADHLNSTNHAIVQTLVNSVNSSIPKACCVPTELSAISMLYLDEYDKVVLKNYQEMVVEGCGCR
B2: GDF2 (BMP9): TGF-beta activator (protein, UniProt Q9UK05 320-429, looked up)
Growth/differentiation factor …: SAGAGSHCQKTSLRVNFEDIGWDSWIIAPKEYEAYECKGGCFFPLADDVTPTKHAIVQTLVHLKFPTKVGKACCVPTKLSPISVLYKDDMGVPTLKYHYEGMSVAECGCR

Experiments:
Type in all cases: cell-based
[1] = test system: LECT2; assay: RNA-seq of LECT2 expression in compound-treated primary human hepatocytes
Procedure: (§1) Human hepatocytes were obtained from two donors from Massachusetts General Hospital, namely MGH54 and MGH63, and one donor from Lonza, namely HUM4111B. Cryopreserved hepatocytes were cultured in plating media for 16 hours, transferred to maintenance media for 4 hours. Cultured on serum-free media for 2 hours, then a compound was added. The hepatocytes were maintained on the serum-free media for 16 hours prior to gene expression analysis. Primary human hepatocytes were stored in the vapor phase of a liquid nitrogen freezer (about −130° C.).
(§2) Human hepatocytes cultured as described above were plated in 24-well format, adding 375,000 cells per well in a volume of 500 ul plating medium. Four hours before treatment, cells were washed with PBS and the medium was changed to either: fresh maintenance medium (complete) or modified maintenance medium.
(§3) Compound stocks were prepared at 1000× final concentration and added in a 2-step dilution to the medium to reduce risk of a compound precipitating out of solution when added to the cells, and to ensure reasonable pipetting volumes. One at a time, each compound was first diluted 10-fold in warm (about 37° C.) modified maintenance medium (initial dilution=ID), mixed by vortexing, and the ID was diluted 100-fold into the cell culture (e.g. 5.1 ul into 1 well of a 24-well plate containing 0.5 mL medium). The plate was mixed by carefully swirling and after all wells were treated and returned to the incubator overnight. If desired, separate plates/wells were treated with vehicle-only controls and/or positive controls. If using multi-well plates, controls were included on each plate. After about 18 hours, cells were harvested for further analysis, e.g., ChIP-seq, RNA-seq, ATAC-seq, etc.
(§4) This protocol is a modified version of the following protocols: MagMAX mirVana Total RNA Isolation Kit User Guide (Applied Biosystems #MAN0011131 Rev B.0), NEBNext Poly(A) mRNA Magnetic Isolation Module (E7490), and NEBNext Ultra Directional RNA Library Prep Kit for Illumina (E7420) (New England Biosystems #E74901).
(§5) The MagMAX mirVana kit instructions (the section titled “Isolate RNA from cells” on pages 14-17) were used for isolation of total RNA from cells in culture. Two hundred μl of Lysis Binding Mix was used per well of the multiwell plate containing adherent cells (usually a 24-well plate).
(§6) For mRNA isolation and library prep, the NEBNext Poly(A) mRNA Magnetic Isolation Module and Directional Prep kit was used. RNA isolated from cells above was quantified, and prepared in […] of each sample in 50 μl of nuclease-free water. This protocol may be run in microfuge tubes or in a 96-well plate.
(§7) Standard QC were applied (read integrity, mapping statistics, library complexity, fragment bias) to remove unsatisfactory samples. […] Log 2 fold change and significance values were computed using PME count data (with replicates explicitly modeled versus pan-experiment controls), median ratio normalized, using maximum likelihood estimation rather than maximum a posteriori, and disabling the use of Cook's distance cutoff when determining acceptable adjusted p-values. […] RNA-seq signals were also normalized by read depth and visualized using the UCSC browser.
(§8) To identify small molecules that modulate target gene expression, primary human hepatocytes were prepared as a monoculture, and at least one small molecule compound was applied to the cells.
(§9) RNA-seq was performed to determine the effects of the compounds on the expression of the target genes in hepatocytes. Fold change was calculated by dividing the level of expression in the cell system that had been perturbed by the level of expression in an unperturbed system. Changes in expression having a p-value ≤0.05 were considered significant.
(§10) Significance was defined as an FPKM ≥1, a log 2(fold change) ≥0.5, and a q-value of ≤0.05 for all targets except for CPOX.

[2] = test system: SERPINC1 mRNA; assay: Quantitative PCR of SERPINC1 mRNA in primary human hepatocytes (Lonza Hu4282) treated with compounds; conditions: quantitative PCR; for SERPINC1 mRNA, Lonza Hu4282, 1 uM / SERPINC1 mRNA, Lonza Hu4282, 10 uM: primary human hepatocytes Lonza Hu4282; for SERPINC1 mRNA, Lonza Hu4282, 1 uM / SERPINC1 mRNA, H8290, 1 uM: compound 1 uM; for SERPINC1 mRNA, Lonza Hu4282, 10 uM / SERPINC1 mRNA, H8290, 10 uM: compound 10 uM; for SERPINC1 mRNA, H8290, 1 uM / SERPINC1 mRNA, H8290, 10 uM: hepatocytes H8290
[3] = test system: SERPINC1 mRNA; assay: Quantitative PCR of SERPINC1 mRNA in mouse hepatocytes treated with compounds; conditions: for SERPINC1 mRNA, Mouse Heps, 1 uM: compound 1 uM; for SERPINC1 mRNA, Mouse Heps, 10 uM: compound 10 uM
Procedure: Samples were amplified using Taqman probes from ThermoFisher.
In some examples, RQ Min and RQ Max values are also reported. RQ Min and RQ Max are the minimum and maximum relative levels of gene expression in the test samples, respectively. They were calculated using the confidence level set in the analysis settings and the confidence level was set to one standard deviation (SD). These values were calculated using standard deviation as follows: […].
Compounds were tested in hepatocytes for upregulation of SERPINC1 mRNA for identification of potential treatments of SERPINC1/AT III deficiency.

[4] = test system: JAG1; assay: RNA-seq of JAG1 expression in compound-treated primary human hepatocytes; conditions: for JAG1 Fold Change (Log2): primary human hepatocytes; for Significant modulation of JAG1 (in words): summary of Table 6
Procedure: (§11) Human hepatocytes were obtained from two donors from Massachusetts General Hospital, namely MGH54 and MGH63, and one donor from Lonza, namely HUM4111B. Cryopreserved hepatocytes were cultured in plating media for 16 hours, transferred to maintenance media for 4 hours. Cultured on serum-free media for 2 hours, then a compound was added. The hepatocytes were maintained on the serum-free media for 16 hours prior to gene expression analysis. Primary human hepatocytes were stored in the vapor phase of a liquid nitrogen freezer (about -130° C.). Human hepatocytes cultured as described above were plated in 24-well format, adding 375,000 cells per well in a volume of 500 ul plating medium. Four hours before treatment, cells were washed with PBS and the medium was changed to either: fresh maintenance medium (complete) or modified maintenance medium. Compound stocks were prepared at 1000× final concentration and added in a 2-step dilution to the medium to reduce risk of a compound precipitating out of solution when added to the cells, and to ensure reasonable pipetting volumes. […] The plate was mixed by carefully swirling and after all wells were treated and returned to the incubator overnight. If desired, separate plates/wells were treated with vehicle-only controls and/or positive controls. If using multi-well plates, controls were included on each plate. After about 18 hours, cells were harvested for further analysis, e.g., ChIP-seq, RNA-seq, ATAC-seq, etc. This protocol is a modified version of the following protocols: MagMAX mirVana Total RNA Isolation Kit User Guide (Applied Biosystems #MAN0011131 Rev B.0), NEBNext Poly(A) mRNA Magnetic Isolation Module ([…]), and NEBNext Ultra Directional RNA Library Prep Kit for Illumina ([…]) (New England Biosystems #E74901). […] Two hundred μl of Lysis Binding Mix was used per well of the multiwell plate containing adherent cells (usually a 24-well plate). For mRNA isolation and library prep, the NEBNext Poly(A) mRNA Magnetic Isolation Module and Directional Prep kit was used. RNA isolated from cells above was quantified, and prepared in […] of each sample in 50 μl of nuclease-free water. This protocol may be run in microfuge tubes or in a 96-well plate. […] Genomic alignments were converted to transcriptome alignments based on reference transcript annotations from the Human GENCODE Gene Set release 24 (Harrow et al., Genome Res. […] Standard QC were applied (read integrity, mapping statistics, library complexity, fragment bias) to remove unsatisfactory samples. Differential gene expression was computed using the negative binomial model implemented by DESeq2 version 1.16.1 (Love et al., Genome Biol. (2014) 15(12):550). […] RNA-seq signals were also normalized by read depth and visualized using the UCSC browser. To identify small molecules that modulate target gene expression, primary human hepatocytes were prepared as a monoculture, and at least one small molecule compound was applied to the cells. RNA-seq was performed to determine the effects of the compounds on the expression of the target genes in hepatocytes. Fold change was calculated by dividing the level of expression in the cell system that had been perturbed by the level of expression in an unperturbed system.

[5] = test system: NOTCH2; assay: RNA-seq of NOTCH2 expression in compound-treated primary human hepatocytes; conditions: for NOTCH2 Fold Change (Log2): primary human hepatocytes
Procedure: as §11

[6] = test system: UGT1A1; assay: RNA-seq of UGT1A1 expression in compound-treated primary human hepatocytes
Procedure: as §1, §2, §3, §4, §5, §6, §7, §8, §9, §10

[7] = test system: ANGPTL3; assay: RNA-seq of ANGPTL3 expression in compound-treated primary human hepatocytes; conditions: additional compounds (Table 13), linear fold change
Procedure: as §1, §2, §3, §4, §5, §6
All pass filter reads from each sample were mapped against the human genome (assembly GRCh38/GCA_000001405.15 “no alt” analysis set merged with hs38d1/GCA_000786075.2) using two pass mapping via STAR version 2.5.3a (alignment parameters alignIntronMin=20; alignIntronMax=1000000; outFilterMismatchNmax=999; outFilterMismatchNoverLmax=0.05; outFilterType=BySJout; outFilterMultimapNmax=20; alignSJoverhangMin=8; alignSJDBoverhangMin=1; alignMatesGapMax=1000000) (Dobin et al., Bioinformatics (2012) 29(1):15-21). Genomic alignments were converted to transcriptome alignments based on reference transcript annotations from the Human GENCODE Gene Set release 24 (Harrow et al., Genome Res. (2012) 22(9): 1760-1774). Using unique and multimapped transcriptomic alignments, gene-level abundance estimates were computed using RSEM version 1.3.0 (Li and Dewey, BMC Bioinformatics (2011) 12:323) in a strand-aware manner, and including confidence interval sampling calculations, to arrive at posterior mean estimates (PME) of abundances (counts and normalized FPKM—fragments per kilobase of exon per million mapped fragments) from the underlying Bayesian model. Standard QC were applied (read integrity, mapping statistics, library complexity, fragment bias) to remove unsatisfactory samples.

Molecule	SERPINC1 mRNA, Mouse Heps, 1 uM [3]	SERPINC1 mRNA, Mouse Heps, 10 uM [3]	JAG1 Fold Change (Log2) [4] [Log2]	Significant modulation of JAG1 (in words) [4]	NOTCH2 Fold Change (Log2) [5] [Log2]	other results
CO[C@H]1/C=C/O[C@@]2(C)Oc3c(C)c(O)c4c(O)c(c(/C=N/N5CCN(C)CC5)c(O)c4c3C2=O)NC(=O)/C(C)=C\C=C\[C@H](C)[C@H](O)[C@@H](C)[C@@H](O)[C@@H](C)[C@H](OC(C)=O)[C@@H]1C [Rifampicin]	–	–	–	–	–	LECT2 Fold Change (Log2) [1]: −0.88 Log2
COc1cc2ncnc(Nc3ccc(Oc4ccccc4)cc3C)c2cc1OC.Cl [APS-2-79]	–	–	–	–	–	LECT2 Fold Change (Log2) [1]: −0.68 Log2
CN1C/C=C/CCOc2cccc(c2)-c2ccnc(n2)Nc2cccc(c2)C1 [SB1317/TG02]	1.13	1.85	–	–	–	SERPINC1 mRNA, Lonza Hu4282, 1 uM [2]: 1.9; SERPINC1 mRNA, Lonza Hu4282, 10 uM [2]: 2.28
O=C(Nc1c[nH]nc1-c1nc2ccc(CN3CCOCC3)cc2[nH]1)NC1CC1 [AT9283]	1.11	1.81	–	–	–	SERPINC1 mRNA, Lonza Hu4282, 1 uM [2]: 0.91; SERPINC1 mRNA, Lonza Hu4282, 10 uM [2]: 2.2
Cc1cc(-c2nc(-c3ccc(OC(F)(F)F)cc3)no2)nn1Cc1ccnc(N2CCN(C3CC3)CC2)c1 [BAY 87-2243]	–	–	0.61	significantly modulate only JAG1	0	–
CCNC(=O)Nc1ccc(-c2nc(N3CCOC[C@@H]3C)c3c(n2)C(C)(C)S(=O)(=O)C3)cc1 [CZ415]	2.2	2.5	–	–	–	SERPINC1 mRNA, H8290, 1 uM [2]: 1.4; SERPINC1 mRNA, H8290, 10 uM [2]: 2.3; SERPINC1 mRNA, Lonza Hu4282, 1 uM [2]: 1.25; SERPINC1 mRNA, Lonza Hu4282, 10 uM [2]: 1.42
Cc1ccc(C(=O)Nc2ccc(Oc3cc4cnn(C)c4cc3-c3cn[nH]c3)c(F)c2)c(=O)n1-c1ccc(F)cc1 [Merestinib]	–	–	0.76	significantly modulate both JAG1 and NOTCH2	0.62	UGT1A1 Fold Change (Log2) [6]: 0.76 Log2; Significant modulation of NOTCH2 (in words) ([5]; summary of Table 6): significantly modulate both JAG1 and NOTCH2
[H]/N=C(/N)N/C(=N/[H])NCCc1ccccc1 [Phenformin]	–	–	1.14	significantly modulate only JAG1	0	–
Cn1cc(C2=C(c3cn(C4CCN(Cc5ccccn5)CC4)c4ccccc34)C(=O)NC2=O)c2ccccc21 [Enzastaurin]	–	–	1.03	significantly modulate only JAG1	0	ANGPTL3-LINEAR FOLD CHANGE [7]: 0.2176
COc1cccc2cc(-c3nc([C@H]4CC[C@H](C(=O)O)CC4)n4ncnc(N)c34)[nH]c12 [compound 308 (OSI-027)]	1.53	2.36	–	–	–	SERPINC1 mRNA, H8290, 1 uM [2]: 1.7; SERPINC1 mRNA, H8290, 10 uM [2]: 1.9
c1cc(-c2cnn3cc(-c4ccc(N5CCNCC5)cc4)cnc23)c2cccnc2c1 [LDN-212854]	–	–	1.47	significantly modulate only JAG1	0	–
B1	–	–	0.63	significantly modulate only JAG1	0	ANGPTL3-LINEAR FOLD CHANGE [7]: 0.3463
B2	–	–	1.03	significantly modulate only JAG1	0	–
